Reference: US7534801B2, “Piperidinylchromen-6-ylsulfonamide compounds as 5-hydroxytryptamine-6 ligands” (Wyeth, priority 2003, dated 2009)
pKi: −log10 of the molar value. Counter-ions that a name gives are not always drawn.

Experiments:
[1] = target: human cloned 5-HT6 receptors (Homo sapiens, UniProt P50406)
Chain of human cloned 5-HT6 receptors (P50406 whole entry): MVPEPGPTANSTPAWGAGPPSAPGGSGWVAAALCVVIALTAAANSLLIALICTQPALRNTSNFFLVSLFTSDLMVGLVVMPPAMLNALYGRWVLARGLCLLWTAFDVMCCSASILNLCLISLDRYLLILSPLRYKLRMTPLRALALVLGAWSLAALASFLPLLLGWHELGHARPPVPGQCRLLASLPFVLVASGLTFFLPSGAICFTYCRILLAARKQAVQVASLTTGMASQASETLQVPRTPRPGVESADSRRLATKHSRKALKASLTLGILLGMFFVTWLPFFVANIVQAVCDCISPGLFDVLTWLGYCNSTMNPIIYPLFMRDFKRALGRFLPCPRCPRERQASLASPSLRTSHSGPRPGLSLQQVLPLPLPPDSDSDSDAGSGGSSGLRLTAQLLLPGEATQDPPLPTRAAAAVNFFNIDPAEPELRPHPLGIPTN

| Structure (SMILES) | melting point | pKi [1] |
| --- | --- | --- |
| O=S(=O)(Nc1ccc2c(c1)C(C1CCNCC1)=CCO2)c1ccc(Cl)cc1 [Example 15, 4-chloro-N-(4-piperidin-4-yl-2H-chromen-6-yl)benzenesulfonamide] | > 240 °C | 8.70 |
| O=S(=O)(Nc1ccc2c(c1)C(C1CCNCC1)=CCO2)c1cccc2ccccc12 [Example 16, N-(4-piperidin-4-yl-2H-chromen-6-yl)naphthalene-1-sulfonamide] |  | 8.70 |
| O=S(=O)(Nc1ccc2c(c1)C(C1CCNCC1)CCO2)c1ccccc1 (centres unmarked) [Example 23, N(4-Piperidin-4-dihydro-2H-chromen-6-yl)benzenesulfonamid Hydrochloride] |  | 7.92 |
| O=S(=O)(Nc1ccc2c(c1)C(C1CCNCC1)=CCO2)c1ccccc1 [Example 14, N(4-Piperidin-4-yl-2H-chromen-6-yl)benzenesulfonamide Hemihydrate] |  | 9.00 |
